Assay results from ChEMBL document CHEMBL1201862, “PubChem BioAssay data set” (2004).
Values belong to the compound of their own block, whether it stands above or below them. Calls of active or inactive are those of the source.

Columns and labels:
[1] = tested on: HEK293; experiment: cells; settings: Homo sapiens
[2] = tested on: HEK293; experiment: cells; settings: Homo sapiens; remark: listed apart in the source
[3] = target: T1, Coagulation factor XII (Homo sapiens, UniProt P00748); format: functional;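 also: activated factor XIIa alpha cleaving a fluorogenic AMC peptide substrate; inhibitor potency from loss of enzyme activity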
T1 sequence (P00748 whole entry): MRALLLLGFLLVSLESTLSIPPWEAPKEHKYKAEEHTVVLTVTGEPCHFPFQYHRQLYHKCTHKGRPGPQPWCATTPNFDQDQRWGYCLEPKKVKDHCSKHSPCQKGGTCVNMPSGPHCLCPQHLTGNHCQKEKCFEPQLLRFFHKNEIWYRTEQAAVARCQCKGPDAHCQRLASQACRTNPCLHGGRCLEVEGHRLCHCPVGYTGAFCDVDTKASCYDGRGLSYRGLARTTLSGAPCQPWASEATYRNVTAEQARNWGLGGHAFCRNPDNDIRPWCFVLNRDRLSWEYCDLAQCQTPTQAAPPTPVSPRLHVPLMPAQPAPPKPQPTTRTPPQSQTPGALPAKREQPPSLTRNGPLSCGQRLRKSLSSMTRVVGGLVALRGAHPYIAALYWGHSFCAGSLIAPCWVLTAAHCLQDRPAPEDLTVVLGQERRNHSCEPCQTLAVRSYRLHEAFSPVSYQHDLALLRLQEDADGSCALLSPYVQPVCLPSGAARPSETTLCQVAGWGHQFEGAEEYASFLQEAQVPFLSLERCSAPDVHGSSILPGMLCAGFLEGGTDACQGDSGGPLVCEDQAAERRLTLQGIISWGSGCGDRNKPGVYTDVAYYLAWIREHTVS

[4] = target: T2, Rac GTPase-activating protein 1 (Homo sapiens, UniProt Q9H0H5); experiment: blockers of MgcRacGAP-driven Rac1 GTP hydrolysis – biochemical, ADP Hunter fluorescence, primary and confirmatory, confirmation (AID 624330); format: functional
T2 sequence (Q9H0H5 whole entry): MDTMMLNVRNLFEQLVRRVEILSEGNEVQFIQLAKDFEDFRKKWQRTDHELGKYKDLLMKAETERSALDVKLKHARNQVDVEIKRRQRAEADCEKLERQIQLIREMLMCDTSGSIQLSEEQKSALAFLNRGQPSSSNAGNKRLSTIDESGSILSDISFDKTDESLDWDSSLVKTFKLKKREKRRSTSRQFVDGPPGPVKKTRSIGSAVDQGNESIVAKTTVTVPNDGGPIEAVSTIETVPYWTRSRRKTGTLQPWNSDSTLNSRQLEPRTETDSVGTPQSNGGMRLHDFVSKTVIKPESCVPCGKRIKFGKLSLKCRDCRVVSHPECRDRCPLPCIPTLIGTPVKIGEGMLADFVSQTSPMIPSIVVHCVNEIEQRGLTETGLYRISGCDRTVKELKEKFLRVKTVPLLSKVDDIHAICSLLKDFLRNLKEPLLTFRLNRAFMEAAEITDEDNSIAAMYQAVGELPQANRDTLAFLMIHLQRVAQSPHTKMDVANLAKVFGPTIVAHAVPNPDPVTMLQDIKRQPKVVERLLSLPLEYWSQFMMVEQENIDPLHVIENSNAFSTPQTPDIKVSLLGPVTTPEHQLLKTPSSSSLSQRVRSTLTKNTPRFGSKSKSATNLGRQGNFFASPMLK

[5] = target: Peroxisome proliferator-activated receptor gamma/Nuclear receptor coactivator 2 (Homo sapiens, UniProt P37231); experiment: (§1) TR-FRET dose response biochemical High Throughput Screening assay for agonists of the steroid receptor coactivator 2 (SRC-2) recruitment by the peroxisome proliferator-activated receptor gamma (PPAR gamma): non-selective agonists. [Related pubchem assays: 1297, 1032 ]; format: functional
Chain of Peroxisome proliferator-activated receptor gamma/Nuclear receptor coactivator 2 (P37231 whole entry): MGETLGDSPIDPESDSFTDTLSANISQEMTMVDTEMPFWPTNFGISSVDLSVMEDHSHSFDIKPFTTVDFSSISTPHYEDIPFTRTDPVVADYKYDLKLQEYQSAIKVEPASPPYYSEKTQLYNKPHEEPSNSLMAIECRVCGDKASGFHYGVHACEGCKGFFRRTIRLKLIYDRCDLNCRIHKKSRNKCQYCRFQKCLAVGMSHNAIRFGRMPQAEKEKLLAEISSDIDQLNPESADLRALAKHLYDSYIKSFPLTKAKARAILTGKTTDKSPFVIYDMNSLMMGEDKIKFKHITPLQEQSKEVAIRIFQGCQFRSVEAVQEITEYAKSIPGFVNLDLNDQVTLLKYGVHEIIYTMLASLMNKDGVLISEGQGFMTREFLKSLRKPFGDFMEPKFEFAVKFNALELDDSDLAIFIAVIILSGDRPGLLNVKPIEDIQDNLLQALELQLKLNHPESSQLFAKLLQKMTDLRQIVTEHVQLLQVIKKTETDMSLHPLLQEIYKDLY
Chain of Peroxisome proliferator-activated receptor gamma/Nuclear receptor coactivator 2 (Q15596 whole entry, further chain): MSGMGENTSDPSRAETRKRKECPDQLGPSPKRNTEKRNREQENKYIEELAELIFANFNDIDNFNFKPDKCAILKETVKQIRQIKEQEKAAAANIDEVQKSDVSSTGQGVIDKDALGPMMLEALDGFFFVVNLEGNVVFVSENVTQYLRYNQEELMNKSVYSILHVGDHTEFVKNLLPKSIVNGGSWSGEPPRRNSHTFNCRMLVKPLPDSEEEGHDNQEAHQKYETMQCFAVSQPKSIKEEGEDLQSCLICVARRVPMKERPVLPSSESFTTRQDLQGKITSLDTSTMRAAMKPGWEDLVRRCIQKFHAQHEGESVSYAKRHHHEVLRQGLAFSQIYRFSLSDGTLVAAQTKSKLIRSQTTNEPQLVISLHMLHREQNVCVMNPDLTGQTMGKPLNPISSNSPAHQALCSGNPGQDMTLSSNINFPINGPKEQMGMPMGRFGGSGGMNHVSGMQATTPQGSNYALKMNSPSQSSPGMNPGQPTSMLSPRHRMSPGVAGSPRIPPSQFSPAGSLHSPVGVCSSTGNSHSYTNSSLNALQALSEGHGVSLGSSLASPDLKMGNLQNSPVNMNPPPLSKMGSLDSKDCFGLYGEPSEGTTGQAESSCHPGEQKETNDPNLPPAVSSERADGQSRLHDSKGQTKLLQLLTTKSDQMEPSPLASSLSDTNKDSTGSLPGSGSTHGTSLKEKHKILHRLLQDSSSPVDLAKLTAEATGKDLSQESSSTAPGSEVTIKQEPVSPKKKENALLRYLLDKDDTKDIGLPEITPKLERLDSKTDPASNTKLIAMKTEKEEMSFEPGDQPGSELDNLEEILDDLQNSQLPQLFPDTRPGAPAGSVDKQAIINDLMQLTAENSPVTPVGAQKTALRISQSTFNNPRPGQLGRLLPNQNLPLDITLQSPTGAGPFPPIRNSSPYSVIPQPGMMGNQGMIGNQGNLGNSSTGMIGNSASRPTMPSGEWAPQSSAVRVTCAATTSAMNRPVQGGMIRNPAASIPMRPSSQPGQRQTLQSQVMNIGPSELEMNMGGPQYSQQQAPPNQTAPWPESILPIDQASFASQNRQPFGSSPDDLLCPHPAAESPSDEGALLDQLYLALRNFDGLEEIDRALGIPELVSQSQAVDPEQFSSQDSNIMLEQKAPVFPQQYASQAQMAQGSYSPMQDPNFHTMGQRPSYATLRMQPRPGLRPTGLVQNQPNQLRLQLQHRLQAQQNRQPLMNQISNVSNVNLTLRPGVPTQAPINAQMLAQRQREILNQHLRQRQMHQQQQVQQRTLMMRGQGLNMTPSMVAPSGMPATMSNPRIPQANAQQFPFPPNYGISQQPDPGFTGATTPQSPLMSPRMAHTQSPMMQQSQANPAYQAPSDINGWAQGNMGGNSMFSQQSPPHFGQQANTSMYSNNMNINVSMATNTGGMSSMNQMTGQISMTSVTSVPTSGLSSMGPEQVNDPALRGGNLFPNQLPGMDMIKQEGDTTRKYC

[6] = target: Peroxisome proliferator-activated receptor gamma/Nuclear receptor coactivator 3 (Homo sapiens, UniProt P37231); experiment: as §1, with “3 (SRC-3)” for “2 (SRC-2)”, “1301 (Confirmation screen.), 1048 (Primary screen.)]” for “1297, 1032 ]”; format: functional
[7] = target: Peroxisome proliferator-activated receptor gamma/Nuclear receptor coactivator 1 (Homo sapiens, UniProt P37231); experiment: as §1, with “1 (SRC-1)” for “2 (SRC-2)”, “assays (depositor defined):AID1300, AID1808, AID504735, AID631]” for “assays: 1297, 1032 ]”; format: protein assay
Chain of Peroxisome proliferator-activated receptor gamma/Nuclear receptor coactivator 1 (P37231 whole entry): as the sequence (P37231 whole entry) above
Chain of Peroxisome proliferator-activated receptor gamma/Nuclear receptor coactivator 1 (Q15788 whole entry, further chain): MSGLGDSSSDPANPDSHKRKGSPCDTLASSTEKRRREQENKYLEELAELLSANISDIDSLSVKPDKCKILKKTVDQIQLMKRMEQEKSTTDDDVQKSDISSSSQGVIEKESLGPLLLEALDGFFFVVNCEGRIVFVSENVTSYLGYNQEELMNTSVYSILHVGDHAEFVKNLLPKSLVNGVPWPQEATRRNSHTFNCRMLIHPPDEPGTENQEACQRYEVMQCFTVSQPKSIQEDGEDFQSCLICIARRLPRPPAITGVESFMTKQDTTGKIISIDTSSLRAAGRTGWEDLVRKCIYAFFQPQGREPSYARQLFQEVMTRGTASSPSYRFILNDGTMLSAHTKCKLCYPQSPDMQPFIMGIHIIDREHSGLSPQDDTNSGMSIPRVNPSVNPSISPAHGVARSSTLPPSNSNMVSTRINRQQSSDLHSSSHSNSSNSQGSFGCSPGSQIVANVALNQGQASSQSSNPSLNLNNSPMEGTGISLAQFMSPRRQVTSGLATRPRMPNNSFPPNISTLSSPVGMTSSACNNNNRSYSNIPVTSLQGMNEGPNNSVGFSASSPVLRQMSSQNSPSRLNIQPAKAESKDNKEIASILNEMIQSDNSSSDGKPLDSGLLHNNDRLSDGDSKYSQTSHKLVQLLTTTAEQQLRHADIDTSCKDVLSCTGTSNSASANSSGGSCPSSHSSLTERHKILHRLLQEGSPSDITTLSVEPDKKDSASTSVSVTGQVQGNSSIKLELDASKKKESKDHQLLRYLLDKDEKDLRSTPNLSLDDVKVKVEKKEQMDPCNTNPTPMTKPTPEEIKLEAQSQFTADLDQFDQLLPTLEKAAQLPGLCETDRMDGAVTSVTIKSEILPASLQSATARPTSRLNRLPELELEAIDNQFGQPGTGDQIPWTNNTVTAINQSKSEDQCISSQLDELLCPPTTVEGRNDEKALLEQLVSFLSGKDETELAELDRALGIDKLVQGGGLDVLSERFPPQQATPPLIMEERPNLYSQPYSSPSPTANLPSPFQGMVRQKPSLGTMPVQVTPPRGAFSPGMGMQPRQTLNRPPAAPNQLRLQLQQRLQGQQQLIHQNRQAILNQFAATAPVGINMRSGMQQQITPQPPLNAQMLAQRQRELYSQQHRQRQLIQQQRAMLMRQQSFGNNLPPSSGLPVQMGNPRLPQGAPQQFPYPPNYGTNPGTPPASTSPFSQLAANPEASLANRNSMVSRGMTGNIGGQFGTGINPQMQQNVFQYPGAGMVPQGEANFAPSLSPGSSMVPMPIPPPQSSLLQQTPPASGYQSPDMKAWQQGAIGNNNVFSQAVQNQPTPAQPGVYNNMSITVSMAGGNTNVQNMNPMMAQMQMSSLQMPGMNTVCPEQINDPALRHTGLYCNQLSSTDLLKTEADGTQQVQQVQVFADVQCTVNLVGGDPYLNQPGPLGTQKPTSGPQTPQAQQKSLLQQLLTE

[8] = viability loss of HMLE_sh_eGFP cells – cell-based, luminescence, counter-screen for HMLE_sh_ECad selective toxicity project, dose response (AID 463074); format: functional, Homo sapiens;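 also: HMLE human mammary epithelial cells expressing control shRNA against eGFP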
[9] = Luminescence Cell-Based Dose Retest to Confirm Inhibitors of Cancer Stem Cells. [Related pubchem assays (depositor defined):AID2717, AID2721]; format: functional; settings: Homo sapiens
[10] = target: T3, Carboxy-terminal domain RNA polymerase II polypeptide A small phosphatase 1 (Homo sapiens, UniProt Q9GZU7); experiment: CTDSP1 inhibitors, concentration-response, biochemical, absorbance readout, ultra-high-throughput screen actives (AID 540297); format: functional
T3 sequence (Q9GZU7 whole entry): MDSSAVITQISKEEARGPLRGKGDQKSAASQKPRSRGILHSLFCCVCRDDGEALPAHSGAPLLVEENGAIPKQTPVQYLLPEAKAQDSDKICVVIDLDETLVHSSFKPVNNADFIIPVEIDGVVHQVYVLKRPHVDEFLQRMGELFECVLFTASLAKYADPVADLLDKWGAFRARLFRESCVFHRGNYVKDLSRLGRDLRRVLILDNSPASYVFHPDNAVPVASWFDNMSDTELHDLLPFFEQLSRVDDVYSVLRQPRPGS

[11] = target: Genome polyprotein (dengue virus type 2, UniProt P29990); experiment: flavivirus cap methylation enzyme inhibition – biochemical, confirmation dose response, primary screen (AID 588689); format: functional
Chain of Genome polyprotein (P29990 2492-3391 limits assumed): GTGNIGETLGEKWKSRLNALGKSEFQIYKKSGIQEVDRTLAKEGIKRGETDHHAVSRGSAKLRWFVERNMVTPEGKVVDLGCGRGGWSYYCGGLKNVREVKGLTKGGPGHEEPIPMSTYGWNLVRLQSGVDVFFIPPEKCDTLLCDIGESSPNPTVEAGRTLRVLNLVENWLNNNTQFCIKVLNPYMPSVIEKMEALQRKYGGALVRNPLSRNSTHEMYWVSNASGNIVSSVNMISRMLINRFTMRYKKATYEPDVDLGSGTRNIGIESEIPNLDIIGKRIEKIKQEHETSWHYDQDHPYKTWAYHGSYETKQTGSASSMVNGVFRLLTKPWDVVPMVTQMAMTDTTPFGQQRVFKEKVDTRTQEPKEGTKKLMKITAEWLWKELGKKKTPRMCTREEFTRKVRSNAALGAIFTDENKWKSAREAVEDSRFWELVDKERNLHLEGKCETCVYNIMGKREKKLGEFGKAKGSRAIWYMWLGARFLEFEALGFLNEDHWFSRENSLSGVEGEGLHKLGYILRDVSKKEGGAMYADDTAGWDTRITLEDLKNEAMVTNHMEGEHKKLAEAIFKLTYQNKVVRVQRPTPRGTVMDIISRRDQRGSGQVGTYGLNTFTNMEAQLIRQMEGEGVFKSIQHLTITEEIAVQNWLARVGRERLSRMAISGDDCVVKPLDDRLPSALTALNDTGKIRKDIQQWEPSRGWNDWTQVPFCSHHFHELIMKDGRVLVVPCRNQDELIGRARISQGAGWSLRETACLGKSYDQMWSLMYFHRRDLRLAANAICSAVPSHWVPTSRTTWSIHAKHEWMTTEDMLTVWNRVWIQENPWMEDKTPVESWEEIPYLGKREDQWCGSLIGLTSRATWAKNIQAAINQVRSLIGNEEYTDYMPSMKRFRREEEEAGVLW

[12] = target: T4, RNA-binding protein pos-1 (Caenorhabditis elegans, UniProt G5EF15); experiment: disruptors of C. elegans POS-1 RNA interaction – biochemical, fluorescence polarization, dose response (AID 1964);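 also: purified POS-1 fused to maltose binding protein made in E. coli; potency of compounds blocking POS-1 binding to fluorescent RNA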
T4 sequence (G5EF15 whole entry): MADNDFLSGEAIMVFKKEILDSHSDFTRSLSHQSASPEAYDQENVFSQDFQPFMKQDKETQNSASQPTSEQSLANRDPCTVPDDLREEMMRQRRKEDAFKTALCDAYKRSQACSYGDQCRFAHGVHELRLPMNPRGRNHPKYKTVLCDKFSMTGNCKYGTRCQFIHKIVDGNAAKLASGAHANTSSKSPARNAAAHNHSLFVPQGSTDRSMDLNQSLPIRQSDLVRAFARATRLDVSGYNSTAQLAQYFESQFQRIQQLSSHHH

[13] = target: T5, Zinc finger protein mex-5 (Caenorhabditis elegans, UniProt Q9XUB2); experiment: potency of MEX-5 RNA-binding blockers – biochemical, C. elegans, fluorescence polarization, dose response (AID 1960)
T5 sequence (Q9XUB2 whole entry): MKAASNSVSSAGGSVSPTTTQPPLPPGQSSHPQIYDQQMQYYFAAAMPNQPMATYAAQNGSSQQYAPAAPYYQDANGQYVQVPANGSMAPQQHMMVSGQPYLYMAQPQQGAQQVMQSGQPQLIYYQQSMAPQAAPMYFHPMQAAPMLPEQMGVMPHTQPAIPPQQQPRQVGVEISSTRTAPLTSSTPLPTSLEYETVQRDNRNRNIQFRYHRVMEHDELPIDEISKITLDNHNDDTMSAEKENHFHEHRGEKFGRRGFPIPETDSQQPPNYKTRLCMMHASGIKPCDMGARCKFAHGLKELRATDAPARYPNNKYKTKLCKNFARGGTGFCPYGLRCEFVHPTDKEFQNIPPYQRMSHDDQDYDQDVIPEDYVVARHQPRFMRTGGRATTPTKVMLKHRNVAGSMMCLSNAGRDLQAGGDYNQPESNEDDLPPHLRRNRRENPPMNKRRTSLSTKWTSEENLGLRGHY

[14] = target: DNA dC->dU-editing enzyme APOBEC-3A (Homo sapiens, UniProt P31941); experiment: Dose Response confirmation of small molecule APOBEC3A DNA Deaminase Inhibitors via a fluorescence-based single-stranded DNA deaminase assay. [Related pubchem assays (depositor defined):AID493011, AID493024]; format: functional
Chain of DNA dC->dU-editing enzyme APOBEC-3A (P31941 whole entry): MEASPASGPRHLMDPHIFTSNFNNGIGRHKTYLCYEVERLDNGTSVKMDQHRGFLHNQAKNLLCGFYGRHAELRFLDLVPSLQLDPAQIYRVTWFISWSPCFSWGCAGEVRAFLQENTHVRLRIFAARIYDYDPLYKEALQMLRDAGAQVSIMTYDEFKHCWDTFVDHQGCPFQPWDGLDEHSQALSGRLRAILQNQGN

[15] = target: DNA dC->dU-editing enzyme APOBEC-3G (Homo sapiens, UniProt Q9HC16); format: functional;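 also: Dose-response counterscreen measuring inhibition of APOBEC3G DNA deaminase activity, run while confirming APOBEC3A inhibitors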
[16] = target: T6, Heat shock factor protein 1 (Mus musculus, UniProt P38532); experiment: decrease of HSF1-responsive luciferase luminescence – cell-based, NIH3T3, dose retest, confirmation (AID 2382); format: functional;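 also: NIH3T3 fibroblasts with HSF1-driven luciferase reporter stressed by proteasome inhibitor MG132; luminescence from HSF1-driven luciferase expression after 8 hours of MG132 stress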
T6 sequence (P38532 whole entry): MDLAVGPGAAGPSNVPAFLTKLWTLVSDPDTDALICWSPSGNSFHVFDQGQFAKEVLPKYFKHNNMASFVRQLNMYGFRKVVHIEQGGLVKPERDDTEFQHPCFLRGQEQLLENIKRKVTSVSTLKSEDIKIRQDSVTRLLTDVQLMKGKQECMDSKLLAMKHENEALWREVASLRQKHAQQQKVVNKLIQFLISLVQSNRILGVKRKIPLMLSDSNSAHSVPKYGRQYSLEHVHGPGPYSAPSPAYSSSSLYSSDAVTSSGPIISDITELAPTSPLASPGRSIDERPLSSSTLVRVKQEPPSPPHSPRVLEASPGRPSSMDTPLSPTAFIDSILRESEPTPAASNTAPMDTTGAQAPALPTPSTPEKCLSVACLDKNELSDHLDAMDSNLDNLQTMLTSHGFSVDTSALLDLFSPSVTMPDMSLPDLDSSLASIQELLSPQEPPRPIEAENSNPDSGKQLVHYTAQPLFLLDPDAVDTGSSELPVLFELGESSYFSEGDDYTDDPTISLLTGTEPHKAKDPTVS

Structure (SMILES): CC(C)(C)c1ccc(Cn2nnc3c(O)nc(C4CCN(C(=O)Cc5cccs5)CC4)nc32)cc1
EC50 [1]: > 59.7 µM (inactive)
EC50 [2]: > 59.7 µM (inactive)

IC50 [3]: > 50 µM (inactive)
Structure (SMILES): CCNc1ccc2c(Cl)cc(=O)oc2c1

IC50 [4]: 105 µM (active)
IC50 [3]: > 50 µM (inactive)
Structure (SMILES): COCCNCC(=O)Nc1nc(C)cs1

IC50 [3]: > 50 µM (inactive)
Structure (SMILES): CCc1c(C)nc2ncnn2c1N1CCC(C(=O)Nc2ccccc2)CC1

EC50 [5]: > 79.4 µM (not active)
EC50 [6]: > 79.4 µM (not active)
EC50 [7]: > 79.4 µM (inactive)
Structure (SMILES): Sc1nnc(-c2cc(-c3ccco3)[nH]n2)n1-c1ccccc1

EC50 [5]: 7.53 µM (active)
EC50 [6]: > 79.4 µM (not active)
EC50 [7]: 54.2 µM (inactive)
Structure (SMILES): CCSc1cnn(-c2ccccc2)c(=O)c1SCC

IC50 [3]: > 50 µM (inactive)
Structure (SMILES): Cc1ccc(NC(=O)CSc2nnc([C@H](C)NC(=O)OC(C)(C)C)o2)c(C)c1

Structure (SMILES): COC(=O)c1sccc1NS(=O)(=O)c1ccc(OC)cc1
AC50 [8]: 28.2 µM (active)
AC50 [9]: 21.4 µM (active)

Structure (SMILES): NC(=O)C1=CC2C3C=CC2(O)C(=O)OC3O1 (stereo unspecified)
EC50 [1]: > 59.7 µM (inactive)
EC50 [2]: > 59.7 µM (inactive)

Structure (SMILES): Cc1cc(C(=O)O)ccc1-c1ccc(/C=C2\NC(=O)N(Cc3ccc(F)cc3)C2=O)o1
IC50 [10]: 3.42 µM (active)
IC50 [11]: > 100 µM (active)
EC50 [12]: 195 µM (active)
EC50 [13]: 191 µM (active)
IC50 [14]: 20.8 µM (active)
IC50 [15]: 42 µM (active)

Structure (SMILES): c1ccc2c(Nc3nc(-c4ccncc4)nc4ccccc34)cccc2c1
AC50 [8]: 34 µM (active)
AC50 [9]: 18.7 µM (active)
EC50 [16]: > 195 µM (not active)
